# Test results taken from patent publication US20160256504A1, “[…] COMPOSITION CONTAINING […] MUSHROOM [[…] EDODES] […] CULTURE AND NATTO BACTERIA [BACILLUS SUBTILIS NATTO] CULTURE” (HK Biotech Co., LTD., priority 2014, published 2016).
# Tests used:
# [1] = test system: plasma plasminogen activator inhibitor-1 (PAI-1); assay: Plasma PAI-1 content in SHR after 4-week treatment; type: in vivo, rat
# blood homocysteine = conditions: rats, hyperhomocysteinemia induced by guanidinoacetic acid injection, EA injected; cited from earlier work
# NO = NO content in NAME-induced hypertensive rat model; type: in vivo; conditions: NAME-induced hypertensive rats
# Method: (§1) The biochemical markers relating to the blood pressure were measured, by collecting blood and organs of the rats used in the experimental examples 1 (non-genetic NAME-induced hypertension) and 3 (4-week-treatments on SHR). […] And from the rats of the experimental example 3, ACE activity and the activity of plasma plasminogen activator inhibitor-1 (PAI-1) of the plasma and the livers were measured. […] The following TABLE 5 is describing NO content and NOS activity of shiitake mushroom mycelium culture and natto bacteria culture mixture in the NAME-induced hypertensive rat model.
# NOS = NOS activity in NAME-induced hypertensive rat model; type: in vivo; conditions: NAME-induced hypertensive rats
# Method: as §1
smiles,measurement,setting,value
"C[C@H](CS)C(=O)N1CCC[C@H]1C(=O)O [CP, captopril]",Plasma PAI-1,[1]; 0 week,113 pg/mL
same,Plasma PAI-1,[1]; 4 weeks,127 pg/mL
"Nc1ncnc2c1ncn2C[C@@H](O)[C@@H](O)C(=O)O [EA, eritadenine]",blood homocysteine,blood homocysteine,reduced
NNc1nncc2ccccc12 [hydralazine],NO Lung,NO; 0 week,10 nM/ml
same,NO Lung,NO; 4 weeks,7 nM/ml
same,NO Plasma,NO; 0 week,21 nM/ml
same,NO Plasma,NO; 4 weeks,20 nM/ml
same,NOS Aorta,NOS; 0 week,0.80 NO pmle/mg protein/min
same,NOS Aorta,NOS; 4 weeks,1.08 NO pmle/mg protein/min
same,NOS Plasma,NOS; 0 week,6.0 NO umole/L
same,NOS Plasma,NOS; 4 weeks,8.5 NO umole/L
